# Data taken from ChEMBL document CHEMBL5338793, “Discovery of Pyrimidinediamine Derivatives as Potent Methuosis Inducers for the Treatment of Triple-Negative Breast Cancer” (J Med Chem, 2023).
# Assays:
# HCC1806 [1] = experiment: Antiproliferative activity against human HCC1806 cells assessed as inhibition of cell proliferation at 1 uM incubated for 24 hrs by SRB assay relative to control; assay type: functional
# HCC1806 [2] = experiment: Induction of morphological changes in human HCC1806 cells assessed as rate of intracellular vacuolization at 1 uM incubated for 24 hrs by microscopic analysis relative to control; assay type: functional
# HCC1806 [3] = experiment: Antiproliferative activity against human HCC1806 cells assessed as inhibition of cell proliferation incubated for 24 hrs by SRB assay; assay type: functional, cell-based; details: HCC1806, 24 h
# 184B5 = experiment: Cytotoxicity against human 184B5 cells assessed as reduction in cell viability at 2 uM incubated for 24 hrs by SRB assay; assay type: toxicity, cell-based; details: 184b5, 24 h
# HCC1806 [4] = experiment: Antiproliferative activity against human HCC1806 cells assessed as inhibition of cell proliferation at 2 uM incubated for 24 hrs by SRB assay relative to control; assay type: functional
Compound,inhibition at 1 µM (HCC1806 [1]),Activity (HCC1806 [2]),IC50 (HCC1806 [3]),Activity (184B5),inhibition at 2 µM (HCC1806 [4])
COc1cc(Nc2cc(N3CCNCC3)nc(SC)n2)ccc1NC(=O)c1cccc(Br)n1,11.1%,–,–,–,–
COc1cnc(N2CCNCC2)nc1Nc1ccc(NC(=O)c2cccc(F)n2)cc1C(F)(F)F,4.48%,–,–,–,–
COc1cc(Nc2nc(N3CCNCC3)ncc2OC)ccc1NC(=O)c1cccc(Br)n1,99.3%,26.5%,770 nM,Non-Toxic,59.9%
COc1cnc(N2CCNCC2)nc1Nc1ccc(NC(=O)c2cccc(Br)n2)cc1,17.4%,–,–,–,–
COc1cc(Nc2cc(N3CCNCC3)ncn2)ccc1NC(=O)c1cccc(Br)n1,11.5%,–,–,–,–
COc1cnc(N2CCNCC2)nc1Nc1ccc(NC(=O)c2cccc(Br)n2)c(C)c1,23.3%,–,–,–,–
COc1cnc(N2CCNCC2)nc1Nc1ccc(NC(=O)c2cccc(Br)c2)cc1C(F)(F)F,8.87%,–,–,–,–
COc1cnc(N2CCNCC2)nc1Nc1cc(C)c(NC(=O)c2cccc(Br)n2)cc1C,98.9%,42.33%,870 nM,Toxic,6.93%
COc1cnc(N2CCNCC2)nc1Nc1ccc(NC(=O)c2cccc(Br)n2)cc1OC(F)(F)F,84.8%,–,–,–,–
COc1cnc(N2CCNCC2)nc1Nc1ccc(NC(=O)c2ncccc2Br)cc1C(F)(F)F,6.13%,–,–,–,–
COc1cnc(N2CCNCC2)nc1Nc1ccc(NC(=O)c2ccco2)cc1C(F)(F)F,1.86%,–,–,–,–
COc1cc(Nc2nc(N3CCOCC3)ncc2OC)ccc1NC(=O)c1cccc(Br)n1,1.41%,–,–,–,–
COc1cc(Nc2nc(N3CCC(OC)CC3)ncc2OC)ccc1NC(=O)c1cccc(Br)n1,7.54%,–,–,–,–
COc1cnc(N2CCNCC2)nc1Nc1ccc(NC(=O)c2cccc(Br)n2)cc1C#N,99%,39.5%,890 nM,Toxic,12.6%
COc1cc(Nc2ccnc(N3CCNCC3)n2)ccc1NC(=O)c1cccc(Br)n1,10.6%,–,–,–,–
COc1cnc(N2CCNCC2)nc1Nc1ccc(NC(=O)c2ccccn2)cc1C(F)(F)F,4.52%,–,–,–,–
COc1cc(Nc2nc(N3C[C@@H](C)O[C@@H](C)C3)ncc2OC)ccc1NC(=O)c1cccc(Br)n1,8.34%,–,–,–,–

Compound,inhibition at 1 µM (HCC1806 [1]),Activity (HCC1806 [2]),IC50 (HCC1806 [3]),Activity (184B5),inhibition at 2 µM (HCC1806 [4])
COc1cnc(N2CCNCC2)nc1Nc1ccc(NC(=O)c2ccc3ccccc3n2)cc1C(F)(F)F,13.3%,–,–,–,–
COc1cnc(N2CCNCC2)nc1Nc1ccc(NC(=O)c2cccs2)cc1C(F)(F)F,4.93%,–,–,–,–
COc1cnc(N2CCNCC2)nc1Nc1ccc(NC(=O)Cc2cccs2)cc1C(F)(F)F,6.92%,–,–,–,–
COc1cc(NC(=O)c2cccc(Br)n2)ccc1Nc1nc(N2CCNCC2)ncc1OC,97.4%,30.17%,970 nM,Toxic,10.4%
COc1cc(Nc2ncnc(N3CCNCC3)n2)ccc1NC(=O)c1cccc(Br)n1,10.8%,–,–,–,–
COc1cnc(N2CCNCC2)nc1Nc1ccc(NC(=O)c2ccncc2)cc1C(F)(F)F,9.77%,–,–,–,–
COc1cnc(N2CCNCC2)nc1Nc1ccc(NC(=O)c2cc(Br)ccn2)cc1C(F)(F)F,12.3%,–,–,–,–
COc1cnc(N2CCNCC2)nc1Nc1ccc(NC(=O)c2cccc(C)n2)cc1C(F)(F)F,11.2%,–,–,–,–
COc1cnc(N2CCNCC2)nc1Nc1ccc(NC(=O)c2cccc(Br)n2)cc1C,3.6%,–,–,–,–
COc1cnc(N2CCNCC2)nc1Nc1ccc(NC(=O)c2cccc(Br)n2)cn1,9.96%,–,–,–,–
COc1cc(Nc2nc(N3CCNCC3)ncc2Cl)ccc1NC(=O)c1cccc(Br)n1,99.2%,42.33%,590 nM,Toxic,10.7%
COc1nc(Nc2ccc(NC(=O)c3cccc(Br)n3)c(OC)c2)nc(N2CCNCC2)n1,4.27%,–,–,–,–
COc1cnc(N2CCNCC2)nc1Nc1ccc(NC(=O)c2cccc(Cl)n2)cc1C(F)(F)F,94.1%,36.83%,370 nM,Non-Toxic,52.9%
COc1cnc(N2CCNCC2)nc1Nc1ccc(NC(=O)c2cccc(Br)n2)cc1C(F)(F)F,99%,41.5%,580 nM,Non-Toxic,71.7%
COc1cc(Nc2nc(N3CCNCC3)ncc2Br)ccc1NC(=O)c1cccc(Br)n1,99.3%,65%,420 nM,Non-Toxic,38.1%
COc1cnc(N2CCNCC2)nc1Nc1ccc(NC(=O)c2cccnc2)cc1C(F)(F)F,4.54%,–,–,–,–
COc1cnc(N2CCNCC2)nc1Nc1ccc(NC(=O)c2ccncn2)cc1C(F)(F)F,6.52%,–,–,–,–
